Source: patent publication US10124004B2, “Pyrido[3,4-d]pyrimidine derivative and pharmaceutically acceptable salt thereof” (Teijin Pharma Limited, priority 2015, dated 2018)
Where two headings read alike, the source gives them in different places.

What was measured:
[1] = target: T1, CDK2/cyclin A2 (Homo sapiens, UniProt P24941); assay: Human CDK2/cyclin A2 inhibitory activity (QS S Assist CDK2/Cyclin A2_FP Kit, IMAP fluorescence polarization); assay type: biochemical
T1 construct: purchased Carna Biosciences, Inc. QS S Assist CDK2/Cyclin A2_FP Kit
In short: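 Kinase activity read as fluorescence polarization (485/535 nm) after phosphorylated fluorescent substrate binds IMAP reagent (30 min, RT, dark). Enzyme (2.5 ng/well) reacted 60 min at RT with ATP/substrate/metal in HEPES pH 7.4 buffer with Tween 20 and DTT; no-enzyme wells define 0% activity; IC50 by curve fit.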

[2] = target: T2, CDK4/cyclin D3 (Homo sapiens, UniProt P11802); assay: Human CDK4/cyclin D3 inhibitory activity (QS S Assist CDK4/Cyclin D3_FP Kit, IMAP fluorescence polarization); assay type: biochemical
T2 construct: purchased Carna Biosciences, Inc. QS S Assist CDK4/Cyclin D3_FP Kit
In short: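 IMAP fluorescence polarization kit: CDK4/cyclin D3 at 12.5-25 ng/well with kit ATP/substrate/metal mix in 20 mM HEPES pH 7.4, 0.01% Tween20, 2 mM DTT, 45 min at room temperature. FP read at 485/535 nm after 30 min binding; IC50 from dose-response fit of percent inhibition versus enzyme and no-enzyme controls.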

[3] = 50% inhibitory concentration against CDK2/cyclin A2, given as class symbol
[4] = 50% inhibitory concentration against CDK4/cyclin D3, given as class symbol
[5] = Human CDK2/cyclin A2 inhibitory activity, read-out: CDK2 Activity symbol
[6] = Human CDK4/cyclin D3 inhibitory activity, read-out: CDK4 Activity symbol

T2 sequence (P11802 whole entry): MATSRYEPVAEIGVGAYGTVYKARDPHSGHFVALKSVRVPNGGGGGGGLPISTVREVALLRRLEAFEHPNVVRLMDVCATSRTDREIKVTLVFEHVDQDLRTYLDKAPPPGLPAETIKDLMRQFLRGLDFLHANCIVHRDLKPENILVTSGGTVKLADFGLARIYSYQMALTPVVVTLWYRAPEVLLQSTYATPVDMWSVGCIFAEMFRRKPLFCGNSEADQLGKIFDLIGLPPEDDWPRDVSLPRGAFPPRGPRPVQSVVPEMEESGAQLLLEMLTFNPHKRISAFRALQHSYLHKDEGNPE
T2 sequence (P30281 whole entry partner): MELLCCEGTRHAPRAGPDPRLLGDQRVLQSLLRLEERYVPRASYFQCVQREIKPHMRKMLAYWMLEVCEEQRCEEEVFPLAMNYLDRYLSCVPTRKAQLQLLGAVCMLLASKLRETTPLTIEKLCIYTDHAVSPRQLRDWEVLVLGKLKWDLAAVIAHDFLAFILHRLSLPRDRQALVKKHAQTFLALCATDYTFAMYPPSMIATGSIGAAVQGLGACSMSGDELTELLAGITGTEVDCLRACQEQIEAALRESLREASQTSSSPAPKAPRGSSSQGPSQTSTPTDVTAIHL

| Structure (SMILES) | IC50 [1, 3] | IC50 [2, 4] | IC50 [1, 5] | IC50 [2, 6] |
| --- | --- | --- | --- | --- |
| CO[C@H](C)c1cc2cnc(Nc3ccc(CN4CCN(CCO)CC4)cn3)nc2c(N[C@H](C)CO)n1 [Compound 914] | ≥ 100 nM | < 10 nM |  |  |
| CC(C)Nc1nc([C@@H](C)O)cc2cnc(Nc3ccc(CN4CCN(CCO)CC4)cn3)nc12 [Compound 555] |  |  | ≥ 100 nM | < 10 nM |
| CCCCNc1nc([C@@H](C)O)cc2cnc(Nc3ccc(CN4CCC[C@H](O)C4)cn3)nc12 [Compound 1188] | ≥ 100 nM | < 10 nM |  |  |
| CC(C)Nc1nc([C@@H](C)O)cc2cnc(Nc3ccc(N4CCN(CCO)CCC4=O)cn3)nc12 [Compound 811] | 10 to 100 nM | < 10 nM |  |  |
| CCCNc1nc([C@@H](C)OC)cc2cnc(Nc3ccc4c(n3)CCN(C(=O)CO)C4)nc12 [Compound 1111] | ≥ 100 nM | 10 to 100 nM |  |  |
| CC(C)Nc1nc([C@@H](C)O)cc2cnc(Nc3ccc(N4CCNC(C(F)(F)F)C4)cn3)nc12 (stereo partly drawn) [Compound 777] | ≥ 100 nM | < 10 nM |  |  |
| COC1CCC(Nc2nc(C(C)O)cc3cnc(Nc4ccc(OC5CCNCC5F)cn4)nc23)CC1 (stereo not drawn) [Compound 646] | ≥ 100 nM | < 10 nM |  |  |
| CC(C)Nc1nc([C@@H](C)O)cc2cnc(Nc3ccc(CN4CCOCC4)cn3)nc12 [Compound 233] |  |  | ≥ 100 nM | < 10 nM |
| CO[C@H](C)c1cc2cnc(Nc3ccc(C4CCNCC4)cn3)nc2c(N[C@H]2CCCOC2)n1 [Compound 956] | ≥ 100 nM | < 10 nM |  |  |
| C[C@@H](O)c1cc2cnc(Nc3ccc(N4CCNCC4)cn3)nc2c(NCC2CC2)n1 [Compound 1051] | ≥ 100 nM | < 10 nM |  |  |
| COC1CCC(Nc2nc(C(C)OC)cc3cnc(Nc4ccc(CN5CCNCC5)cn4)nc23)CC1 (stereo not drawn) [Compound 395] |  |  | ≥ 100 nM | < 10 nM |
| CO[C@H](C)c1cc2cnc(Nc3ccc(N4CCN(CC(=O)O)CC4=O)cn3)nc2c(NC(C)C)n1 [Compound 894] | ≥ 100 nM | 10 to 100 nM |  |  |
| CC(C)Nc1nc(C2CCOC2)cc2cnc(Nc3ccc4c(n3)CCN(CC(=O)O)C4)nc12 (stereo not drawn) [Compound 1232] | ≥ 100 nM | < 10 nM |  |  |
| COCC(C)(C)Nc1nc([C@@H](C)O)cc2cnc(Nc3ccc(C4CCNCC4)cn3)nc12 [Compound 215] |  |  | ≥ 100 nM | < 10 nM |
| CC(C)Nc1nc([C@@H](C)O)cc2cnc(Nc3ccc(N4CC5(CCNCC5)C4)nn3)nc12 [Compound 575] |  |  | ≥ 100 nM | < 10 nM |
| CC(C)Nc1nc([C@@H](C)O)cc2cnc(Nc3ccc(N4CCC5(CC4)CNC(=O)C5)nn3)nc12 [Compound 648] | ≥ 100 nM | < 10 nM |  |  |
| FC(F)c1cc2cnc(Nc3ccc(N4CCNCC4)nn3)nc2c(N[C@H]2CCCOC2)n1 [Compound 381] |  |  | ≥ 100 nM | < 10 nM |
| CC(C)Nc1nc([C@@H](C)O)cc2cnc(Nc3ccc(CN4CCNCC4=O)cn3)nc12 [Compound 262] |  |  | ≥ 100 nM | 10 to 100 nM |
| CCCNc1nc([C@@H](C)O)cc2cnc(Nc3ccc(N4CCN(C)CC4)nn3)nc12 [Compound 1102] | ≥ 100 nM | < 10 nM |  |  |
| CNCCN1CCc2nc(Nc3ncc4cc([C@@H](C)O)nc(NC(C)C)c4n3)ccc2C1 [Compound 930] | ≥ 100 nM | < 10 nM |  |  |
| COCC(C)(C)Nc1nc([C@@H](C)O)cc2cnc(Nc3ccc(N4CCNCC4)cn3)nc12 [Compound 195, (R)-1-(8-(l-methoxy-2-methylpropan-2-ylamino)-2-(5-(piperazin-1-yl)pyridin-2-ylamino)pyrido[3,4-d]pyrimidin-6-yl)ethanol] |  |  | ≥ 100 nM | < 10 nM |
| CC(C)Nc1nc(C(C)O)cc2cnc(Nc3ccc(N4CCC(CCCO)CC4)cn3)nc12 (stereo not drawn) [Compound 75] |  |  | ≥ 100 nM | < 10 nM |
| C[C@@H](O)c1cc2cnc(Nc3ccc(O[C@H]4CC[C@H](N(C)C)CC4)cn3)nc2c(N[C@H]2CCCOC2)n1 [Compound 786] | ≥ 100 nM | < 10 nM |  |  |
| COCc1cc2cnc(Nc3ccc(N4CCNCC4)cn3)nc2c(NC(C)C)n1 [Compound 44] |  |  | ≥ 100 nM | < 10 nM |

| Structure (SMILES) | IC50 [1, 3] | IC50 [2, 4] | IC50 [1, 5] | IC50 [2, 6] |
| --- | --- | --- | --- | --- |
| CC(C)Nc1nc(C(F)F)cc2cnc(Nc3ccc(-c4ccccc4)cn3)nc12 [Compound 99] |  |  | ≥ 100 nM | ≥ 100 nM |
| CC(C)Nc1nc([C@@H](C)O)cc2cnc(Nc3ccc(N4CCC(O)CC4)nn3)nc12 [Compound 260] |  |  | ≥ 100 nM | < 10 nM |
| CC(C)Nc1nc([C@@H](C)O)cc2cnc(Nc3ccc(N4CCN(C5COC5)CC4)nn3)nc12 [Compound 682, (R)-1-(8-(isopropylamino)-2-((6-(4-(oxetan-3-yl)piperazin-1-yl)pyridazin-3-yl)amino)pyrido[3,4-d]pyrimidin-6-yl)ethanol] | ≥ 100 nM | < 10 nM |  |  |
| CCCNc1nc(C(C)=O)cc2cnc(Nc3ccc(CN4CCNCC4)cn3)nc12 [Compound 910] | ≥ 100 nM | 10 to 100 nM |  |  |
| COC[C@H](C)Nc1nc([C@@H](C)O)cc2cnc(Nc3ccc(N4CCNCC4=O)cn3)nc12 [Compound 752] | ≥ 100 nM | 10 to 100 nM |  |  |
| CC(C)Nc1nc(C(C)O)cc2cnc(Nc3ccc(N4CCC(N(C)C)C(F)C4)nn3)nc12 (stereo not drawn) [Compound 622] |  |  | ≥ 100 nM | < 10 nM |
| CCCCNc1nc([C@@H](C)O)cc2cnc(Nc3ccc(CN4CCC(O)CC4)cn3)nc12 [Compound 1061] | ≥ 100 nM | < 10 nM |  |  |
| OCCN1CCc2nc(Nc3ncc4cc(C5CCOC5)nc(N[C@H]5CCCOC5)c4n3)ccc2C1 (stereo partly drawn) [Compound 1122] | ≥ 100 nM | < 10 nM |  |  |
| CNC1CCCC1Oc1ccc(Nc2ncc3cc(C(C)O)nc(NC(C)C)c3n2)nc1 (stereo not drawn) [Compound 801] | ≥ 100 nM | < 10 nM |  |  |
| C[C@@H](O)c1cc2cnc(Nc3ccc4c(n3)CCN(C(=O)OCCN(C)C)C4)nc2c(N[C@H]2CCCOC2)n1 [Compound 1143] | ≥ 100 nM | < 10 nM |  |  |
| CO[C@H](C)c1cc2cnc(Nc3ccc(C4CCNCC4)cn3)nc2c(NC(C)C)n1 [Compound 232] |  |  | ≥ 100 nM | < 10 nM |
| CO[C@H](C)c1cc2cnc(Nc3ccc(CN4CCNCC4)cn3)nc2c(NCCCF)n1 [Compound 1227] | ≥ 100 nM | < 10 nM |  |  |
| CC(C)Nc1nc(C(F)F)cc2cnc(Nc3ccc(N4CCNCC4=O)cn3)nc12 [Compound 89] |  |  | 10 to 100 nM | < 10 nM |
| COCC(C)(C)Nc1nc([C@@H](C)O)cc2cnc(Nc3ccc(CN4CCNCC4=O)cn3)nc12 [Compound 248] |  |  | ≥ 100 nM | 10 to 100 nM |
| CC(C)Nc1nc([C@H](C)O)cc2cnc(Nc3ccc(N4CCNCC4=O)cn3)nc12 [Compound 1217] | ≥ 100 nM | 10 to 100 nM |  |  |
| CC(=O)Nc1ccc(Nc2ncc3cc(C(F)F)nc(NC(C)C)c3n2)nc1 [Compound 86] |  |  | ≥ 100 nM | 10 to 100 nM |
| CC(C)Nc1nc([C@@H](C)O)cc2cnc(Nc3ccc(CN4CCCC(O)C4)cn3)nc12 (stereo partly drawn) [Compound 1057] | ≥ 100 nM | < 10 nM |  |  |
| CC(C)Nc1nc(C(F)F)cc2cnc(Nc3ccc(-c4ccc(O)cc4)cn3)nc12 [Compound 110] |  |  | ≥ 100 nM | ≥ 100 nM |
| CC(C)Nc1nc([C@@H](C)O)cc2cnc(Nc3ccc(CC(=O)N4CCNCC4)cn3)nc12 [Compound 519] |  |  | ≥ 100 nM | < 10 nM |
| CC(=O)c1cc2cnc(Nc3ccc(CN4CCN(CCO)CC4)cn3)nc2c(NCC(C)C)n1 [Compound 973] | ≥ 100 nM | 10 to 100 nM |  |  |
| C[C@@H](O)c1cc2cnc(Nc3ccc(CN4CCNCC4)cn3)nc2c(NC2(C(=O)O)CCCC2)n1 [Compound 325] |  |  | ≥ 100 nM | 10 to 100 nM |
| O=C(O)[C@H]1CC[C@H](Nc2nc(C(F)F)cc3cnc(Nc4ccc(N5CCNCC5)nn4)nc23)CC1 [Compound 384] |  |  | ≥ 100 nM | 10 to 100 nM |
| CN(C)CCOC(=O)N1CCc2nc(Nc3ncc4cc(C5CCOC5)nc(N[C@H]5CCCOC5)c4n3)ccc2C1 (stereo partly drawn) [Compound 1136] | ≥ 100 nM | < 10 nM |  |  |
| CC(O)c1cc2cnc(Nc3ccc(N4CCNCC4)cn3)nc2c(NC2CCCC2)n1 (stereo not drawn) [Compound 8] |  |  | ≥ 100 nM | < 10 nM |
